Experimental data published in patent publication US7074789B2, “Kinase inhibitors” (Amgen Inc., priority 1999, dated 2006).

Tests used:
Format in all cases: biochemical
[1] = molecular target: T1, Tek (Homo sapiens, UniProt Q02763); experiment: Kinase inhibition assay (33P transfer), Tek; details: read-out: Tek-1
T1 construct: Kinases are expressed as either kinase domains or full length constructs; made in house
Summary of the method: (§1)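 IC50: inhibitor concentration lowering 33P incorporation into immobilised substrate by 50%. Label transferred from ATP to poly(Glu,Tyr) 4:1 or poly(Arg,Ser) 3:1 is measured after a 0.5% phosphoric acid wash by liquid scintillation.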

[2] = molecular target: T2, c-Met (Homo sapiens, UniProt P08581); experiment: Kinase inhibition assay (33P transfer), c-Met; details: Table 2, kinase inhibition class; read-out: Met-1
T2 construct: Kinases are expressed as either kinase domains or full length constructs; made in house
Summary of the method: as §1

[3] = molecular target: T3, EGFR (Homo sapiens, UniProt P00533); experiment: Kinase inhibition assay (33P transfer), EGFR; details: Table 2, kinase inhibition class; read-out: EGFR-1
T3 construct: Kinases are expressed as either kinase domains or full length constructs; made in house
T3 sequence (P00533 25-1210, species assumed): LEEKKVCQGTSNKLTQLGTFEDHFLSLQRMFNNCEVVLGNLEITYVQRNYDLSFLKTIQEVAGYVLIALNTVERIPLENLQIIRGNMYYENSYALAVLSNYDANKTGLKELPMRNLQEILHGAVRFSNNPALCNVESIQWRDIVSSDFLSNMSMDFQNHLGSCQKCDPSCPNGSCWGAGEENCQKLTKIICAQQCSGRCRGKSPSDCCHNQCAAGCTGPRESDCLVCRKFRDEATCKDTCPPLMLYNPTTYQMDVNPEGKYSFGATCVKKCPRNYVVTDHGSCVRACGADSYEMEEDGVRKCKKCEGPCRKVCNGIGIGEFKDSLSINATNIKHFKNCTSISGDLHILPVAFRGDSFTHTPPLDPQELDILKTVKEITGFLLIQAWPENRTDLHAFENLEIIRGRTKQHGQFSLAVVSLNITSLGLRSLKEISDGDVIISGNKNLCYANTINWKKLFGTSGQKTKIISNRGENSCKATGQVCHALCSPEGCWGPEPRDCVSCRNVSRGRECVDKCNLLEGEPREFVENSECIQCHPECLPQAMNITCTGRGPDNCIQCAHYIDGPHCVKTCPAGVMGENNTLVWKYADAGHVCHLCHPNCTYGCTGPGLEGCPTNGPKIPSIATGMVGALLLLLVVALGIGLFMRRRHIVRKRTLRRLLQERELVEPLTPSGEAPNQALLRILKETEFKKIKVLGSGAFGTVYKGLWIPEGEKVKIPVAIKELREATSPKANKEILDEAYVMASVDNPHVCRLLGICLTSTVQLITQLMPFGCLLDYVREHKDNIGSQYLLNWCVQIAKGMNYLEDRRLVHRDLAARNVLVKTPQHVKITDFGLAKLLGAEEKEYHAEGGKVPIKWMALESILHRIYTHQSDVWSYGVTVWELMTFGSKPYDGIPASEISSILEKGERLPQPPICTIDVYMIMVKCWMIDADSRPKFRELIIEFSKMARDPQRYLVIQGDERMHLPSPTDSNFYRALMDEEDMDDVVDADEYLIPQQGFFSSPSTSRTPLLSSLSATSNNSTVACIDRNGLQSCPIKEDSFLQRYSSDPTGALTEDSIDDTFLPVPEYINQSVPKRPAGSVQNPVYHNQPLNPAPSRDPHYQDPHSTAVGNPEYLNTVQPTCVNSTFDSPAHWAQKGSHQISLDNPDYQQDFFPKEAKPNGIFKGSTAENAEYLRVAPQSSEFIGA
Summary of the method: as §1

[4] = molecular target: T4, Lck (Homo sapiens, UniProt P06239); experiment: Kinase inhibition assay (33P transfer), Lck; details: Table 3; read-out: Lck-1
T4 construct: Kinases are expressed as either kinase domains or full length constructs; made in house
T4 sequence (P06239 whole entry, species assumed, the tested form may be a part): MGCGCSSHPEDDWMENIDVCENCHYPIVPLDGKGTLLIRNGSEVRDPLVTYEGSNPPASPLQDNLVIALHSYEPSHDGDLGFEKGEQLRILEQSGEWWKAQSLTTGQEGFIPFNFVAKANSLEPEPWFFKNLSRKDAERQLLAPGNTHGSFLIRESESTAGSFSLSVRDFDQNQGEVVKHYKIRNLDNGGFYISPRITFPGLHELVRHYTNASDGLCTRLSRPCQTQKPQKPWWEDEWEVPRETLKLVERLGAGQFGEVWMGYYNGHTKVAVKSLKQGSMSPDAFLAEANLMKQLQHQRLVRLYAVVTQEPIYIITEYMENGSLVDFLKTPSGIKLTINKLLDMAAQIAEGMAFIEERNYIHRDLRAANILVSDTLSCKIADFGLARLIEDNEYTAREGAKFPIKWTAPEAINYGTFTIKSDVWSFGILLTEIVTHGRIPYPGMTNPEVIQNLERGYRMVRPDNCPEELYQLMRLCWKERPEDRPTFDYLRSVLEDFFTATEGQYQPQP
Summary of the method: (§2)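 Activity was read as 33P incorporation, counted by liquid scintillation after a 0.5% phosphoric acid wash, into poly(Glu,Tyr) 4:1 or poly(Arg,Ser) 3:1 substrates coated on plates. Enzymes were tagged (GST or polyHis) kinase domains or full-length proteins from bacterial or insect-cell expression, sometimes with regulatory polypeptides.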

[5] = molecular target: T5, Itk (Homo sapiens, UniProt Q08881); experiment: Kinase inhibition assay (33P transfer), Itk; details: Table 3; read-out: Itk-1
T5 construct: Kinases are expressed as either kinase domains or full length constructs; made in house
T5 sequence (Q08881 1-620): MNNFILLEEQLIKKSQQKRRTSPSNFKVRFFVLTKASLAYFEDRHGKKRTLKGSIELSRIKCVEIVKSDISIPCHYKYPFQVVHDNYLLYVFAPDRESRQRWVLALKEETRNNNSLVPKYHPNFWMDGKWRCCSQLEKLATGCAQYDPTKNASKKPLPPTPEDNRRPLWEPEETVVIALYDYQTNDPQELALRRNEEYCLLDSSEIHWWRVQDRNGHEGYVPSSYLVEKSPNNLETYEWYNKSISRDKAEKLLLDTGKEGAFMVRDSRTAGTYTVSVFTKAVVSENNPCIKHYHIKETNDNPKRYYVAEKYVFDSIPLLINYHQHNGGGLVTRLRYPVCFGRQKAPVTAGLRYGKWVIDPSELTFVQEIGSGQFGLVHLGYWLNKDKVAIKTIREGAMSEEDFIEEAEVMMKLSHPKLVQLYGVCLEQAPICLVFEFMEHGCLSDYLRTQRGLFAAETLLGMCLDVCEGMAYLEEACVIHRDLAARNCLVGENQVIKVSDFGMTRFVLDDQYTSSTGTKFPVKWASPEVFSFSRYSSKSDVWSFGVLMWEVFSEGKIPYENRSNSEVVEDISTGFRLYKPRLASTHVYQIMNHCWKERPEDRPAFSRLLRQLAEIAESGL
Summary of the method: as §1

[6] = molecular target: T6, AKT (Homo sapiens, UniProt Q9Y243); experiment: Kinase inhibition assay (33P transfer), AKT; details: Table 2, kinase inhibition class; read-out: AKT3-1
T6 construct: Kinases are expressed as either kinase domains or full length constructs; made in house
T6 sequence (Q9Y243 whole entry, the tested form may be a part): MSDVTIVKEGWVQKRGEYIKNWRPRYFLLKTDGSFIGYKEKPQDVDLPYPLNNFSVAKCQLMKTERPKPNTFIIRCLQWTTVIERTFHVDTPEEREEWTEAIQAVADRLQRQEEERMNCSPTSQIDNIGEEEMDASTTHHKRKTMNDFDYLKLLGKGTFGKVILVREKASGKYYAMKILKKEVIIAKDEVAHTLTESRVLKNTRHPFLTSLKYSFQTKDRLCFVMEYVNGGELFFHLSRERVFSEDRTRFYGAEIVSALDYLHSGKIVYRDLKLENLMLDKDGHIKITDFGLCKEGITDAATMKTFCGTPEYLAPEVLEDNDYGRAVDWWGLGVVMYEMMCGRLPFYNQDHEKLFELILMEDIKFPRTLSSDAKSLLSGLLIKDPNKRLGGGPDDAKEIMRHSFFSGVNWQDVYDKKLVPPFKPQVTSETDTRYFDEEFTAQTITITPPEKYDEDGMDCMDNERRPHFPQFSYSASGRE
Summary of the method: as §2

[7] = molecular target: T7, Kdr (Homo sapiens, UniProt P35968); experiment: Kinase inhibition assay (33P transfer), Kdr; details: Table 3; read-out: KDR-1
T7 construct: Kinases are expressed as either kinase domains or full length constructs; made in house
Summary of the method: as §2

[8] = molecular target: T8, ErbB4 (Homo sapiens, UniProt Q15303); experiment: Kinase inhibition assay (33P transfer), ErbB4; details: read-out: ErbB4-1
T8 construct: Kinases are expressed as either kinase domains or full length constructs; made in house
T8 sequence (Q15303 26-1308, species assumed): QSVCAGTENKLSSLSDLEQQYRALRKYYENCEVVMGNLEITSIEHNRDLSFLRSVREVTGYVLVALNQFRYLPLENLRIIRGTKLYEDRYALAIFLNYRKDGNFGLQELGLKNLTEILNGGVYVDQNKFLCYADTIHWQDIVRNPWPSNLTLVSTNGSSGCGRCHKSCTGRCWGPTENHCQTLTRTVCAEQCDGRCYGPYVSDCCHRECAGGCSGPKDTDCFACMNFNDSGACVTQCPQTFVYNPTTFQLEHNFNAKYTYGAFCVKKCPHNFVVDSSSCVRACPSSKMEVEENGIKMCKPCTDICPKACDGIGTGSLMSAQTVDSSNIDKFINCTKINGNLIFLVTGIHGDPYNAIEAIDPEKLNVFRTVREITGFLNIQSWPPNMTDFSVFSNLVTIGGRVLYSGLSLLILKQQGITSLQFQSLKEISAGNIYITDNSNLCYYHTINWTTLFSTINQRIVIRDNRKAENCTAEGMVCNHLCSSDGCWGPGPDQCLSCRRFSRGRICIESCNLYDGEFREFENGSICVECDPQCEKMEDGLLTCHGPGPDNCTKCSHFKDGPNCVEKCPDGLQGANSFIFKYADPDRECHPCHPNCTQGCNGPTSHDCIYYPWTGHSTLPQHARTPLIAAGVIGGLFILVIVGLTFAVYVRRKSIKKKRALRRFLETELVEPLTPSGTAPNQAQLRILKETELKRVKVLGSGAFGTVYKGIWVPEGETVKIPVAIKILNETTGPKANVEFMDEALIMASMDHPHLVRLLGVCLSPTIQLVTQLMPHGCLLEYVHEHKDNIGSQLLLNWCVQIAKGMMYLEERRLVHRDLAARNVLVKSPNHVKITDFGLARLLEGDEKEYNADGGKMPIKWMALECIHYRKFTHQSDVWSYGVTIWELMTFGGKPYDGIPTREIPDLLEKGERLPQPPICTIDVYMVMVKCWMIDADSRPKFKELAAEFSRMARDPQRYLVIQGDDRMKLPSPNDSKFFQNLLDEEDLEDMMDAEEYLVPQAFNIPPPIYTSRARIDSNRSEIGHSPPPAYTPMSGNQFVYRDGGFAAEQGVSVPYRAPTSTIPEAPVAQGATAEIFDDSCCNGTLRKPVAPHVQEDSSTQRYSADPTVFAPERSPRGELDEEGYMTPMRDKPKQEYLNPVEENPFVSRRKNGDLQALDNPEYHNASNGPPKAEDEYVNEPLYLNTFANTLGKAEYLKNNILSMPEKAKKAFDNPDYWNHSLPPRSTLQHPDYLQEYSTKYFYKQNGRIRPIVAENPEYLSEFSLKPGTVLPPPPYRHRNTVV

[9] = molecular target: T9, EPHB4 (Homo sapiens, UniProt P54760); experiment: Kinase inhibition assay (33P transfer), EPHB4; details: read-out: EPHB4-1
T9 construct: Kinases are expressed as either kinase domains or full length constructs; made in house
T9 sequence (P54760 16-987): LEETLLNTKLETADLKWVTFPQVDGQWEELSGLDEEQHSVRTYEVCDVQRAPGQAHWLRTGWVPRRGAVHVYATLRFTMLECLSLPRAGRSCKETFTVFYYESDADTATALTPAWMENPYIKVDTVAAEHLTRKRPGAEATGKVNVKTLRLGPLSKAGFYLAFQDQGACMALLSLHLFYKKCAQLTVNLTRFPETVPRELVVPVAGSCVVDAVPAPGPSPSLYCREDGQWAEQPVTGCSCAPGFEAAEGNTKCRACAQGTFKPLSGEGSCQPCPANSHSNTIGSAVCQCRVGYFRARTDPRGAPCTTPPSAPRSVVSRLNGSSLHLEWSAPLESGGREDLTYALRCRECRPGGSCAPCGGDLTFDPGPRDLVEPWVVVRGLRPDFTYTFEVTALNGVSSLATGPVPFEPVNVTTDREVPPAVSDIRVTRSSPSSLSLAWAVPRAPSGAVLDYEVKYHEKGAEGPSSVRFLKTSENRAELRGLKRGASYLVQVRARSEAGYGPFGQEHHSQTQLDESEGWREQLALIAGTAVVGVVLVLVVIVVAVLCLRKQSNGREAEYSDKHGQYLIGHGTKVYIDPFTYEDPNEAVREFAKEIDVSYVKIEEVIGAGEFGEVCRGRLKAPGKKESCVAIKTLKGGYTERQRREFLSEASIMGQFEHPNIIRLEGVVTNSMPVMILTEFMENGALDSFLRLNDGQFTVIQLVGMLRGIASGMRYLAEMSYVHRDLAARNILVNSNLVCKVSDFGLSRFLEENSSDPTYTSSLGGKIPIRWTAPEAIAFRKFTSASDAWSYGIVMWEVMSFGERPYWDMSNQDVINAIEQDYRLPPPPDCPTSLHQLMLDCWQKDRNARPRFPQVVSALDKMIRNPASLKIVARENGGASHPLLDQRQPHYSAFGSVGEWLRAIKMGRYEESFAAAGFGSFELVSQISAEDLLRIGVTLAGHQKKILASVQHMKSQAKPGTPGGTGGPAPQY

[10] = molecular target: T10, Zap-70 (Homo sapiens, UniProt P43403); experiment: Kinase inhibition assay (33P transfer), Zap-70; details: Table 3; read-out: Zap-1
T10 construct: Kinases are expressed as either kinase domains or full length constructs; made in house
T10 sequence (P43403 1-619): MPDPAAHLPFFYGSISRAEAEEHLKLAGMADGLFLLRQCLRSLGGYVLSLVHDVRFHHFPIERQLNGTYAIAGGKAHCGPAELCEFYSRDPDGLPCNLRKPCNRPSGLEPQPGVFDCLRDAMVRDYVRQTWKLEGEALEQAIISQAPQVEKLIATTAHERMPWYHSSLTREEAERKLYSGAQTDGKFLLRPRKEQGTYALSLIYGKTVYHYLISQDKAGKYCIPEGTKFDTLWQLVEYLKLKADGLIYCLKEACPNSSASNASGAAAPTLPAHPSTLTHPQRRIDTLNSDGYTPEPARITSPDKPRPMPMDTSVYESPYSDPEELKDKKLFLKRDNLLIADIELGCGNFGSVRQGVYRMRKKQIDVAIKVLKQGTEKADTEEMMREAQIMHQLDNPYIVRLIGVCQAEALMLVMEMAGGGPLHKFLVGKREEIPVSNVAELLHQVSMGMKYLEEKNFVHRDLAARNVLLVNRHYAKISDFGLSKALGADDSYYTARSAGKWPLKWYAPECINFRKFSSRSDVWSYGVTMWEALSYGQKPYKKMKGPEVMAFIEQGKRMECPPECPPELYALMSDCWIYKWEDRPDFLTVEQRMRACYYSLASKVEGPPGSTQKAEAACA
Summary of the method: as §2

[11] = molecular target: T11, IGFR-1 (Homo sapiens, UniProt P08069); experiment: Kinase inhibition assay (33P transfer), IGFR-1; details: Table 2, kinase inhibition class
T11 construct: Kinases are expressed as either kinase domains or full length constructs; made in house
T11 sequence (P08069 31-1367): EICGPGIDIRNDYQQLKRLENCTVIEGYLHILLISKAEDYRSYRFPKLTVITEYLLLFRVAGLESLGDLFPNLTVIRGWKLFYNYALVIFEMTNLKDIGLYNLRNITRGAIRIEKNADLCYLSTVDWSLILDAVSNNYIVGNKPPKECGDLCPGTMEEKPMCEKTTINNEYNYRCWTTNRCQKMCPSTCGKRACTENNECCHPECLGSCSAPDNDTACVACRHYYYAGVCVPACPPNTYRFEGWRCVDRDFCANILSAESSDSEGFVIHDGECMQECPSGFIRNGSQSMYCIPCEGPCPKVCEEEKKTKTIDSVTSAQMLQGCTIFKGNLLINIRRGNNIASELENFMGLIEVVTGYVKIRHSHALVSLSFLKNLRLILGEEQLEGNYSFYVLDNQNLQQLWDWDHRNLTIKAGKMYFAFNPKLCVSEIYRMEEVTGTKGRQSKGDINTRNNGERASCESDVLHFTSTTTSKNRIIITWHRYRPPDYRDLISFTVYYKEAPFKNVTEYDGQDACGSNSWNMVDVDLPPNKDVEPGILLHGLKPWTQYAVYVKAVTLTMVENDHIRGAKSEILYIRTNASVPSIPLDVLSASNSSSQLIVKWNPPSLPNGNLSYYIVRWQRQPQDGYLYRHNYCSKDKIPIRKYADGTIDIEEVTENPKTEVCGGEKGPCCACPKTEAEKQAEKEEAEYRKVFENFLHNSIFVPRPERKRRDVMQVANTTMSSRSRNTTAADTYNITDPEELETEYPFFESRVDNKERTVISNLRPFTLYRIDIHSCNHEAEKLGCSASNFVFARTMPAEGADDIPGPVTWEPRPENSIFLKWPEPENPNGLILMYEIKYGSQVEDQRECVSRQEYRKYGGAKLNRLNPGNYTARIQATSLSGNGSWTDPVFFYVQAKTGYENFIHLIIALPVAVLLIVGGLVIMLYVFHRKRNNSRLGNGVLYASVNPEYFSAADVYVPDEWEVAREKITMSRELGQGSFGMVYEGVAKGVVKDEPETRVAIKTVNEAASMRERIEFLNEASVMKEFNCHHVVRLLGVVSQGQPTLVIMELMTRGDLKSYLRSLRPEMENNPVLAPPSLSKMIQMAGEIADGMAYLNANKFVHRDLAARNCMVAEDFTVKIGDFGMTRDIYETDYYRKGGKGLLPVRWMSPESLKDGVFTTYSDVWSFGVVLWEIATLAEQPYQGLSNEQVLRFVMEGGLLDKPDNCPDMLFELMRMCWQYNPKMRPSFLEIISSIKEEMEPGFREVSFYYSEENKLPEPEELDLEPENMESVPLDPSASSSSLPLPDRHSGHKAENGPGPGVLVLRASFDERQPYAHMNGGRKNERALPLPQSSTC

SMILES	IC50 [1] [µM]	IC50 [2] [µM]	IC50 [3] [µM]	IC50 [4] [µM]	IC50 [5] [µM]	IC50 [6] [µM]	IC50 [7] [µM]	IC50 [8] [µM]	IC50 [9] [µM]	IC50 [10] [µM]	IC50 [11] [µM]
COc1cc(Nc2ncnc(N(CCC(C)C)c3ccc(Cl)cc3)n2)cc(OC)c1OC [Compound 51]	0.873 to 5.24	0.873 to 5.24	< 0.873	0.873 to 5.24	> 9.83	> 9.83	0.873 to 5.24	5.24 to 7.64	0.873 to 5.24	> 9.83	> 9.83
CCOC(=O)Cc1ccc(Nc2ncnc(Nc3cc(OC)c(OC)c(OC)c3)n2)cc1 [Compound 62]	> 10.2	7.96 to 10.2	< 0.91	0.91 to 5.46	> 10.2	> 10.2	0.91 to 5.46	> 10.2	> 10.2	> 10.2	0.91 to 5.46
COc1ccc(Nc2ncnc(Nc3ccccc3C)n2)cc1OC [Compound 111]	> 13.3	> 13.3	< 1.19	1.19 to 7.11	> 13.3	> 13.3	1.19 to 7.11	> 13.3	> 13.3	> 13.3	< 1.19

Continued, values first:

IC50 [1] [µM]	IC50 [2] [µM]	IC50 [3] [µM]	IC50 [4] [µM]	IC50 [5] [µM]	IC50 [6] [µM]	IC50 [7] [µM]	IC50 [8] [µM]	IC50 [9] [µM]	IC50 [10] [µM]	IC50 [11] [µM]	SMILES
> 11.2	> 11.2	< 0.994	8.7 to 11.2	0.994 to 5.97	> 11.2	> 11.2	> 11.2	0.994 to 5.97	> 11.2	0.994 to 5.97	COc1ccc(Nc2ncnc(Nc3cccc(Br)c3)n2)cc1OC [Compound 118]
5.59 to 8.15	8.15 to 10.5	0.931 to 5.59	> 10.5	> 10.5	8.15 to 10.5	0.931 to 5.59	> 10.5	0.931 to 5.59	5.59 to 8.15	> 10.5	COc1ccc(Nc2ncnc(Nc3ccc(OCc4ccccc4)cc3)n2)cc1OC [Compound 157]
> 10.6	> 10.6	> 10.6	8.23 to 10.6	> 10.6	> 10.6	> 10.6	–	> 10.6	> 10.6	> 10.6	COc1cc(Nc2ncnc(Nc3[nH]ncc3-c3cccs3)n2)cc(OC)c1OC [Compound 368]
> 10.7	> 10.7	> 10.7	5.72 to 8.34	8.34 to 10.7	> 10.7	> 10.7	–	> 10.7	> 10.7	> 10.7	COc1cc(Nc2ncnc(Nc3[nH]ncc3-c3ccccc3)n2)cc(OC)c1OC [Compound 369]
